Article PMC8471592, “Characterization of Conserved and Promiscuous Human Rhinovirus CD4 T Cell Epitopes” (Cells, 2021)
Ends that are not written are not given here.

Columns and labels:
[1] = system: PBMCs from three HLA II-typed donors; test: IFNγ-ELISPOT assay; assay type: cell-based, human; conditions: 10 μM peptide, 1 × 10^5 PBMCs, 24 h, triplicate; positive if >60 SFC/10^6 PBMCs after background subtraction
Protocol: Peptide-specific IFNγ production by PBMCs from HLA II-typed donors was detected by standard IFNγ ELISPOT assays. Briefly, 96-well PVDF plates (Millipore, Darmstadt, Germany) were coated with anti-IFNγ (1-D1K mAb, Mabtech, Stockholm, Sweden) and 1 × 10^5 PBMCs were pleated with RPMI 1640 (Gibco, Waltham, MA, USA), supplemented with 10% of fetal bovine serum (Gibco, Waltham, MA, USA), 100 µg/mL streptomycin, 100 U/mL penicillin, and 2 mM L-glutamine (Lonza, Basel, Switzerland). Individual RV peptides were added at 10 μM. Plates were incubated at 37 °C and 5% CO2 and, after 24 h, were processed according to the manufacturer’s instructions. PBMCs incubated with 10 μg/mL phytohemagglutinin (PHA) or without any stimuli were used as positive and background controls, respectively. The assay was run in triplicate for each individual peptide. The number of IFNγ-secreting cells (spot forming cells (SFCs)) was determined with an ELISPOT reader (ImmunoSpot 5.0, CTL Analyzers, Shaker Heights, OH, USA).

HLA-DRB1*04:04 = HLA-DRB1*04:04 (Homo sapiens, UniProt P01903+P01911, A100R/A169T/F76Y/I96L/K127E/L162R/M171V/N62H/P40V/Q125Y/R42H/S133A/S149N/S66Y/V209L/W38E); test: Competitive inhibition HLA II binding assay; conditions: competition with radiolabeled probe peptide, purified HLA II, 0.3 nM–30 µM, 2-day incubation; mean of three or more independent assays
HLA-DRB1*09:01 = HLA-DRB1*09:01 (Homo sapiens, UniProt P01903+P01911, A100R/A103E/D57H/D86V/F55Y/F60I/F76Y/I96F/K127E/L162R/M171V/P40D/Q125H/Q99R/R33Q/R42F/S133A/S66N/T210M/V115G/W38K/Y107V/Y59G/Y89S); test: Competitive inhibition HLA II binding assay; conditions: competition with radiolabeled probe peptide, purified HLA II, 0.3 nM–30 µM, 2-day incubation; mean of three or more independent assays
HLA-DRB1*03:01 = HLA-DRB1*03:01 (Homo sapiens, UniProt P01903+P01911, A100K/A102G/A103R/A169T/F55Y/I96L/K41T/L162R/M171V/P40S/Q125H/Q178H/Q39Y/R42S/S66N/T106N/T262R/W38E/Y61H); test: Competitive inhibition HLA II binding assay; conditions: competition with radiolabeled probe peptide, purified HLA II, 0.3 nM–30 µM, 2-day incubation; mean of three or more independent assays
HLA-DRB1*07:01 = HLA-DRB1*07:01 (Homo sapiens, UniProt P01903+P01911, A100R/A102G/A103Q/D57E/D86V/E43K/F76Y/K127E/L162R/M171V/P40G/Q125H/Q99D/R33Q/R42Y/R54Q/S133A/S66F/T210M/V115G/Y107V/Y59L/Y89S); test: Competitive inhibition HLA II binding assay; conditions: competition with radiolabeled probe peptide, purified HLA II, 0.3 nM–30 µM, 2-day incubation; mean of three or more independent assays
HLA-DRB1*13:02 = HLA-DRB1*13:02 (Homo sapiens, UniProt P01903+P01911, A100E/A169T/K41T/L162R/M171V/P40S/Q125H/Q178H/Q39Y/Q99D/R42S/S66N/T262R/V115G/W38E/Y61H); test: Competitive inhibition HLA II binding assay; conditions: competition with radiolabeled probe peptide, purified HLA II, 0.3 nM–30 µM, 2-day incubation; mean of three or more independent assays
HLA-DRB1*08:02 = HLA-DRB1*08:02 (Homo sapiens, UniProt P01903+P01911, A100R/A103L/A169T/F76Y/H45Y/I96F/K41T/L162R/M171V/P40S/Q125H/Q178H/Q39Y/Q99D/R218S/R42G/S66Y/V115G/W38E); test: Competitive inhibition HLA II binding assay; conditions: competition with radiolabeled probe peptide, purified HLA II, 0.3 nM–30 µM, 2-day incubation; mean of three or more independent assays
HLA-DRB1*11:01 = HLA-DRB1*11:01 (Homo sapiens, UniProt P01903+P01911, A100R/A169T/A87E/I96F/K41T/L162R/M171V/P40S/Q125H/Q178H/Q39Y/Q99D/R42S/S66Y/T262R/V115G/W38E); test: Competitive inhibition HLA II binding assay; conditions: competition with radiolabeled probe peptide, purified HLA II, 0.3 nM–30 µM, 2-day incubation; mean of three or more independent assays
HLA-DRB1*11:04 = HLA-DRB1*11:04 (Homo sapiens, UniProt P01903+P01911, A100R/A169T/A87E/I96F/K41T/L162R/M171V/P40S/Q125H/Q178H/Q39Y/Q99D/R42S/S66Y/T262R/W38E); test: Competitive inhibition HLA II binding assay; conditions: competition with radiolabeled probe peptide, purified HLA II, 0.3 nM–30 µM, 2-day incubation; mean of three or more independent assays

Compound	IFNγ recall response in ELISPOT [1]	IC50 (HLA-DRB1*04:04) [nM]	IC50 (HLA-DRB1*09:01) [nM]	IC50 (HLA-DRB1*03:01) [nM]	IC50 (HLA-DRB1*07:01) [nM]	IC50 (HLA-DRB1*13:02) [nM]	IC50 (HLA-DRB1*08:02) [nM]	IC50 (HLA-DRB1*11:01) [nM]	IC50 (HLA-DRB1*11:04) [nM]
YGDDVIFSY [RVA2029–2037, reference compound]	not immunogenic in IFNγ ELISPOT assays								
CC[C@H](C)[C@H](NC(=O)CNC(=O)[C@H](CCCCN)NC(=O)[C@H](CCC(=O)O)NC(=O)[C@H](CC(C)C)NC(=O)[C@@H](NC(=O)[C@H](CC(=O)O)NC(=O)[C@H](CCCCN)NC(=O)[C@@H](N)C(C)C)C(C)C)C(=O)N1CCC[C@H]1C(=O)N[C@H](C(=O)N[C@@H](CC(C)C)C(=O)N[C@@H](CCC(N)=O)C(=O)N[C@@H](CO)C(=O)N1CCC[C@H]1C(=O)N[C@H](C(=O)N[C@H](C(=O)N[C@@H](CCC(=O)O)C(=O)O)C(C)C)[C@@H](C)O)[C@@H](C)O [RVA57–74]		4100	9540						
YEIQESEYYPKHIQY [RVC945–959, RV C 2A peptide, position 945–959]	able to stimulate IFNγ production by T cells in at least one donor								
GLEPLDLNTSAGFPYV [RVC1791–1806]		1100		8400	1200	62			
CC(C)C[C@H](NC(=O)[C@H](Cc1ccc(O)cc1)NC(=O)[C@H](Cc1c[nH]cn1)NC(=O)[C@@H]1CCCN1C(=O)[C@H](Cc1c[nH]c2ccccc12)NC(=O)[C@@H](NC(=O)CNC(=O)[C@H](Cc1ccc(O)cc1)NC(=O)CNC(=O)[C@@H](NC(=O)[C@@H](NC(=O)[C@H](C)NC(=O)[C@H](CC(N)=O)NC(=O)[C@H](C)NC(=O)[C@@H](N)C(C)C)C(C)C)C(C)C)C(C)C)C(=O)N[C@H](C(=O)N1CCC[C@H]1C(=O)N[C@@H](CCC(=O)O)C(=O)O)[C@@H](C)O [RVA97–114]		5580	11500		1300	11600	453	1100	19700
DLPYVTYLKDELR [RVC1835–1847]		773					2600		
INLRTNNSSTIVVPYIN [RVC258–274]		3430	840		411	40			
KEKFRDIRRFIP [RVC1582–1592]		8680	2730		13000		44	33	101
CC[C@H](C)[C@H](NC(=O)[C@@H](NC(=O)[C@H](CO)NC(=O)[C@@H](N)CC(=O)O)[C@@H](C)O)C(=O)N[C@H](C(=O)N[C@@H](CO)C(=O)N[C@@H](CCC(N)=O)C(=O)N[C@@H](CC(=O)O)C(=O)N[C@H](C(=O)N[C@@H](C)C(=O)N[C@@H](CC(N)=O)C(=O)N[C@@H](C)C(=O)N[C@H](C(=O)N[C@H](C(=O)NCC(=O)N[C@@H](Cc1ccc(O)cc1)C(=O)NCC(=O)N[C@H](C(=O)O)C(C)C)C(C)C)C(C)C)C(C)C)[C@@H](C)O [RVA89–106]		19	1200		865	6650	5170		5820
